Reference: BigSolDB 2.1

Cc1occc(=O)c1O
solubility (mole fraction)
Settings	288.15 K	293.15 K	298.15 K	303.15 K	308.15 K	313.15 K	318.15 K	323.15 K
in 1,2-dichloroethane	0.0109	0.0143	0.0174	0.0214	0.0262	0.0333	0.0378	0.048
in acetone	0.0101	0.0116	0.0134	0.0157	0.0195	0.023	0.0265	0.0311
in acetonitrile	0.00735	0.00861	0.0107	0.0136	0.016	0.0209	0.0258	0.0325
in ethanol	0.00894	0.0106	0.0125	0.0156	0.0211	0.0273	0.0331	0.0427
in ethyl acetate	0.0115	0.013	0.0153	0.02	0.0225	0.0276	0.0337	0.0413
in isobutanol	0.00638	0.00832	0.0108	0.0134	0.0185	0.0238	0.0293	0.0349
in isopropanol	0.00683	0.00812	0.0103	0.0129	0.0161	0.021	0.0265	0.0328
in methanol	0.0135	0.0159	0.0185	0.0223	0.0267	0.0325	0.0373	0.0465
in n-butanol	0.00705	0.00917	0.0115	0.0143	0.0182	0.0228	0.03	0.0365
in n-butyl acetate	0.00889	0.0101	0.0128	0.0148	0.0193	0.0229	0.0281	0.0317
in n-propanol	0.00705	0.00931	0.0118	0.0144	0.0182	0.0233	0.028	0.0341
in n-propyl acetate	0.00974	0.0105	0.013	0.0151	0.0181	0.0226	0.026	0.0316
in sec-butanol	0.00716	0.00927	0.0111	0.0153	0.0177	0.0244	0.0304	0.0408
